# Source: patent US7115574B2, “System and method for support legacy operating system booting in a legacy-free system” (priority 2001, dated 2006)
# Non-standard residues stand in square brackets, D forms with d. No end group written: not given here.
# Tests used:
# [1] = system: edema caused by intradermal injection of recombinant human IL-1β in the mouse ear; experiment: IL-1β-induced ear edema with centrally administered α-MSH and receptor antagonists; assay type: in vivo, BALB/c mice
# Method: See Macaluso, A., McCoy, D., Ceriani, G., Watanabe, T., Biltz, J., Catania, A., and Lipton, J. M., Anti-inflammatory Influences of a-MSH Molecules: Central Neurogenic and Peripheral Actions, 14(4), J. of Neuroscience 2377-2382 (1994). Female BALB/c mice (Simonsen Laboratories, Gilroy, Calif.), 7-8 weeks old, were housed at 23-25° C. in groups not exceeding five animals per cage [28 cm (L)×18 cm (W)×13 cm (H)]. Before the experiments they were acclimatized for not less than 1 week before experimentation to standard lighting and temperature conditions with food and water freely available.
# Mice were anesthetized with 10% pentobarbital sodium solution (1 mg/mouse, 50 mg/ml, Nembutal sodium solution; Abbott Laboratories, North Chicago, Ill.). Baseline ear thickness measurements were taken with a spring-loaded micrometer (Swiss Precision Instruments, Los Angeles, Calif.). Ear thickness was expressed in centimeters and was measured at least twice at each time point. The average thickness of unstimulated ears was […]. Inflammation was induced by injecting 20 μl of recombinant human IL-1β (1500 U; Genzyme, Cambridge, Mass.) directly into the skin (intradermally) of one ear of each mouse using a 28 gauge needle (Hiltz et al., 1992). Measures of ear thickness were repeated 4 and 6 hr later, while the mice were under sodium pentobarbital anesthesia.
# Several agents were administered at the time of ear challenge to pharmacologically block certain receptors: atropine (Sigma Chemical Co.; 150 μg i.p.), a muscarinic receptor blocker that acts on autonomic end-organ receptors, was chosen because of links between inflammation and modulation of pain and the finding that muscarinic antagonists increase pain threshold (Hartvig et al., 1989); phentolamine (Sigma; 150 μg i.p.) an agent that competes for occupancy of α-adrenergic receptors; propranolol (Sigma; 150 μg, i.p.; 30 μg, i.c.v.), a nonspecific competitive antagonist for β-adrenergic receptors.
# Because of the size of the experiments and the requirement for several shipments of animals over time, several experiments were performed, each with complete treatment and control groups drawn from the same shipment of mice. Omnibus analysis of variance techniques (Dynastat, Washington, D.C.) were used to test overall differences among group means. Tukey's protected t test was used to compare individual means. Probability values of <0.05 were considered significant.
# [2] = system: carrageenan-induced swelling in rat paws; experiment: Rat paw edema test (carrageenan); assay type: in vivo, Sprague-Dawley rats; details: 100 mg/kg intraperitoneal, rats
# Method: A second in vivo bioassay for anti-inflammatory activity was conducted in which the action of the tripeptide (SEQ ID NO: 1) was compared to that of hydrocortisone. In this assay, the two agents were given at similar doses and tested for their independent ability to inhibit carrageenan-induced swelling in rat paws. This assay, the rat paw edema test, was conducted generally as it is typically performed in the art, for example, as described by Winter et al. (1962), Proc. Soc. Exp. Biol. Med., 111:544 or in U.S. Pat. No. 4,150,137.
# Briefly, the assay was performed as follows. Each of twenty-four male Sprague-Dawley rats was assigned to one of four groups: Tripeptide treatment and controls (matched according to body weight and initial paw volume), hydrocortisone treatment and matched controls. The volume of the right rear paw of the test and control animals was determined using standard procedures and a mercury displacement volumetric technique. […] One hour later 0.5 ml of 1% lambda carrageenan in saline solution was injected into the right rear paw of the animals and the paw volume was again recorded (baseline measure). For comparison of the effects of the two treatments, paw volume of experimental animals measured at hourly intervals was expressed as a percentage of the volume change of their respective matched controls.
# C. albicans = C. albicans colony forming units (candidacidal activity); assay type: cell-based; details: for relative potency in reducing C. albicans viability: FIG. 2, 10^−4M melanocortin peptides
# Method: C. albicans (clinical isolate) was obtained from the collection of the Department of Microbiology, Ospedale Maggiore di Milano and maintained on Sabouraud's agar slants and periodically transferred to Sabouraud's agar plates and incubated for 48 hours at 28° C. To prepare a stationary growth phase yeast, a colony was taken from the agar plate and transferred into 30 ml Sabouraud-dextrose broth and incubated for 72 hours at 32° C. Cells were centrifuged and suspended in Hank's balanced salt solution (“HBSS”) to the desired concentration. Viability, determined by the exclusion of 0.01% methylene blue, remained >98%.
# C. albicans (1×10^6/ml in HBSS) was incubated in the presence or absence or α-MSH(1-13) (SEQ ID NO: 3) or (11-13) (SEQ ID NO: 1) at concentrations in the range of 10^−15 M to 10^−6 M for 2 hours at 37° C. Cells were then washed in cold distilled water and diluted with HBSS to a concentration of 100 organisms/ml. One-ml aliquots were dispensed on blood agar plates and incubated for 48 hours at 37° C. Organism viability was estimated from the number of colonies formed.
# In subsequent experiments using familiar procedures we compared activity of α-MSH(4-10) (SEQ ID NO: 10), (6-13) (SEQ ID NO: 2), (11-13) (SEQ ID NO: 1), ACTH(1-39) (SEQ ID NO: 9), (18-39) (SEQ ID NO: 11) and fluconazole, the latter an established antifungal agent. Melanocortin peptides and fluconazole were tested in concentrations of 10^−6 M to 10^−4 M. There were at least six replicates for each concentration of peptide. […]
# [3] = system: inflammation induced in the ear by picryl chloride application; experiment: Picryl chloride-induced ear swelling; assay type: in vivo, BALB/C mice; details: for % Inhibition 3 h: 3 h after picryl chloride; for % Inhibition 6 h: 6 h after picryl chloride; for overall effect on inflammation (ANOVA): 10-80 μg IP, 3 and 6 h
# Method: Hiltz, M. E., Catania, A., Lipton, J. M., Anti-Inflammatory Activity of aα-MSH (11-13) Analogs: Influence of Alteration in Stereochemistry, 12 Peptides 767 (1981). […] Female BALB/C mice (Simonsen Laboratories), 7 weeks old, were housed at 23-25° C. in groups of no more than 5 per cage [28 cm (L)×18 cm (W)×13 cm (H)]. They were allowed to acclimatize to standard lighting and temperature conditions for at least 1 week, with food and water available ad lib, before the experiment began. Five to ten animals were randomly assigned to each treatment group each test day, and all experiments were repeated at least twice to confirm reproducibility. To reduce error due to slight differences in responses to the irritant of animals from different shipments, tests of each agent were performed as separate experiments in which experimental and control animals were drawn from the same shipment.
# In the experiments each animal was anesthetized with 1 mg of pentobarbital sodium solution ([…], Nembutal, Abbott Laboratories, Abbott park, Ill.). Baseline ear thickness was measured for both ears with a spring-loaded micrometer (Swiss Precision Instruments, Los Angeles, Calif.). Ear thickness was expressed in units of 10^−3 cm; the average thickness of unstimulated ears was approximately 25-30×10^−3 cm. After baseline measurements were taken, one of six solutions was injected IP. […] The doses of the tripeptides were 10 μg (2.6×.10^−8 M), 20 μg (5.2×.10^−8 M), 40 μg (1.04×.10^−7 M), and 80 μg (2.08×.10^−7 M). Immediately after saline or α-MSH injection, a micropipette was used to coat both sides of each ear with 10 μl […] of a 0.5% picryl chloride (Polysciences, Warrington, Pa.) solution in acetone.
# Ear thickness was remeasured 3 and 6 h after picryl chloride application. Swelling was determined by subtracting baseline thickness from the measurements for each ear at 3 and 6 h. The differences for both ears were then averaged for the final analysis.
# Repeated-measure ANOVA techniques were used to determine if there was an overall difference among group data for each peptide tested in separate experiments. In those cases in which the ANOVA yielded significant results, Dunnett's test was then used to compare the effects of peptide doses with control (saline) data for each of the two time periods, 3 and 6 h.
# [4] = antagonist administered intraperitoneally
Compound,"effect of antagonist on the anti-inflammatory influence of centrally administered α-MSH(1-13) [1, 4]",% Inhibition 3 h ([3]; 10 μg IP) [%],% Inhibition 6 h ([3]; 10 μg IP) [%],% Inhibition 3 h ([3]; 20 μg IP) [%],% Inhibition 6 h ([3]; 20 μg IP) [%],% Inhibition 3 h ([3]; 40 μg IP) [%],% Inhibition 6 h ([3]; 40 μg IP) [%],% Inhibition 3 h ([3]; 80 μg IP) [%],% Inhibition 6 h ([3]; 80 μg IP) [%],overall effect on inflammation (ANOVA) [3],other results
CC(C)NCC(O)COc1ccc(CC(N)=O)cc1 (stereo not drawn) [atenolol],little inhibition,–,–,–,–,–,–,–,–,–,–
CN1[C@@H]2CC[C@H]1C[C@@H](OC(=O)C(CO)c1ccccc1)C2 (stereo partly drawn) [atropine],did not alter,–,–,–,–,–,–,–,–,–,–
COc1ccc(OC)c(C(O)C(C)NC(C)(C)C)c1 (stereo not drawn) [butoxamine],significantly reduced,–,–,–,–,–,–,–,–,–,–
"C[C@]12CCC(=O)C=C1CC[C@@H]1[C@@H]2[C@@H](O)C[C@@]2(C)[C@H]1CC[C@]2(O)C(=O)CO [hydrocortisone, reference compound]",–,–,–,–,–,–,–,–,–,–,anti-inflammatory activity (inhibition of paw edema) ([2]; between 1 and 4 hours): nearly identical anti-inflammatory activity; decrease in paw inflammation ([2]; first hour after carrageenan injection): ~30%
Cc1ccc(N(CC2=NCCN2)c2cccc(O)c2)cc1 [phentolamine],did not alter,–,–,–,–,–,–,–,–,–,–
CC(C)NCC(O)COc1cccc2ccccc12 (stereo not drawn) [propranolol],inhibited,–,–,–,–,–,–,–,–,–,effect of antagonist on the anti-inflammatory influence of centrally administered α-MSH(1-13) ([1]; antagonist injected centrally): little effect
ACTH(1-39): adrenocortitrophic hormone (ACTH) peptide 1-39 (SYSMEHFRWGKPVGKKRRPVKVYPAGEDDEASEAFPLEF; listed as Homo sapiens) [reference compound],–,–,–,–,–,–,–,–,–,–,relative potency in reducing C. albicans viability (C. albicans): did not reduce
"ACTH(18-39): ACTH fragment (18-39) (CLIP) (RPVKVYPAGEDDEASEAFPLEF; Designed polypeptide with anti-inflammatory, anti-microbial, anti-fungal, and anti-viral properties.) [reference compound]",–,–,–,–,–,–,–,–,–,–,relative potency in reducing C. albicans viability (C. albicans): did not reduce
"Ac-[D-Lys^11, D-Val^13]α-MSH(11-13)-NH2 (Ac-[dK]-Pro-[dV]-NH2; SMILES CC(=O)N[C@H](CCCCN)C(=O)N1CCC[C@H]1C(=O)N[C@@H](C(N)=O)C(C)C)",–,22,22,55,46,42,41,40,44,significant overall reduction in inflammation,–
Ac-[D-Lys^11]α-MSH(11-13)-NH2 (Ac-[dK]-Pro-Val-NH2; SMILES CC(=O)N[C@H](CCCCN)C(=O)N1CCC[C@H]1C(=O)N[C@H](C(N)=O)C(C)C),–,23,17,25,16,35,37,34,29,significantly reduced inflammation,–
Ac-[D-Pro^12]α-MSH(11-13)-NH2 (Ac-Lys-[dP]-Val-NH2; SMILES CC(=O)N[C@@H](CCCCN)C(=O)N1CCC[C@@H]1C(=O)N[C@H](C(N)=O)C(C)C),–,4,8,11,5,10,8,8,6,no significant effect on inflammation,–
Ac-[D-Val^13]α-MSH(11-13)-NH2 (Ac-Lys-Pro-[dV]-NH2; SMILES CC(=O)N[C@@H](CCCCN)C(=O)N1CCC[C@H]1C(=O)N[C@@H](C(N)=O)C(C)C) [Ac-[D-Pro^13]α-MSH(11-13)-NH2],–,24,23,48,54,39,45,41,29,marked inhibitory influence,–
VPK-Ac-CC-Ac-KPV (Ac-CKPV; also: disulfide dimer via Cys),–,–,–,–,–,–,–,–,–,–,"effectiveness against microbes relative to α-MSH(11-13) (C. albicans): at least as effective as α-MSH(11-13); C. albicans colony forming units (CFU) (C. albicans; FIG. 1, incubation 2 hours at 37° C.): inhibited"
